± gives the uncertainty stated by the source.
Assay: xn = mol fraction of the nth substance listed
Conditions: for viscosity: x2 = 0

CCCCCCCCCCCCCCCC[n+]1ccccc1.O=C([O-])c1ccccc1O + CC(C)[C@H](N)C(=O)O + O
electrical conductivity [S/m], 101 kPa
Conditions	293.15 K	298.15 K	303.15 K	308.15 K	313.15 K
x2 = 0.0009002, x1 = 3.6e-07	0.000683 ± 4.1e-05	0.000771 ± 4.6e-05	0.000864 ± 5.2e-05	0.000967 ± 5.8e-05	0.00108 ± 6.5e-05
x2 = 0.0009002, x1 = 7.2e-07	0.000869 ± 5.2e-05	0.000983 ± 5.9e-05	0.0011 ± 6.6e-05	0.00123 ± 7.4e-05	0.00136 ± 8.2e-05
x2 = 0.0009002, x1 = 1.27e-06	0.00105 ± 6.3e-05	0.00118 ± 7.1e-05	0.00133 ± 8e-05	0.00148 ± 8.9e-05	0.00164 ± 9.9e-05
x2 = 0.0009002, x1 = 1.63e-06	0.00122 ± 7.3e-05	0.00138 ± 8.3e-05	0.00155 ± 9.3e-05	0.00173 ± 0.0001	0.00192 ± 0.00012
x2 = 0.0009002, x1 = 1.99e-06	0.00138 ± 8.3e-05	0.00156 ± 9.4e-05	0.00175 ± 0.00011	0.00194 ± 0.00012	0.00215 ± 0.00013
x2 = 0.0009002, x1 = 2.35e-06	0.00152 ± 9.1e-05	0.00174 ± 0.00011	0.00196 ± 0.00012	0.00219 ± 0.00013	0.00243 ± 0.00015
x2 = 0.0009002, x1 = 2.9e-06	0.00168 ± 0.0001	0.00193 ± 0.00012	0.00219 ± 0.00013	0.00247 ± 0.00015	0.00274 ± 0.00016
x2 = 0.0009002, x1 = 3.44e-06	0.00182 ± 0.00011	0.00207 ± 0.00012	0.00235 ± 0.00014	0.00266 ± 0.00016	0.003 ± 0.00018
x2 = 0.0009002, x1 = 3.98e-06	0.00195 ± 0.00012	0.00223 ± 0.00013	0.00254 ± 0.00015	0.00287 ± 0.00017	0.00322 ± 0.00019
x2 = 0.0009002, x1 = 4.53e-06	0.00208 ± 0.00013	0.00236 ± 0.00014	0.00269 ± 0.00016	0.00303 ± 0.00018	0.00342 ± 0.0002
x2 = 0.0009002, x1 = 4.89e-06	–	–	–	0.0032 ± 0.00019	0.00359 ± 0.00021
x2 = 0.0009002, x1 = 5.07e-06	0.00218 ± 0.00013	0.00249 ± 0.00015	0.00283 ± 0.00017	–	–
x2 = 0.0009002, x1 = 5.43e-06	0.00228 ± 0.00014	0.0026 ± 0.00016	0.00295 ± 0.00018	0.00334 ± 0.0002	0.00376 ± 0.00023
x2 = 0.0009002, x1 = 5.79e-06	0.00238 ± 0.00014	0.00271 ± 0.00016	0.00307 ± 0.00018	0.00346 ± 0.00021	0.00389 ± 0.00023
x2 = 0.0009002, x1 = 6.16e-06	0.00246 ± 0.00015	0.0028 ± 0.00017	0.00317 ± 0.00019	0.00358 ± 0.00022	0.00403 ± 0.00024
x2 = 0.001799, x1 = 1.8e-07	0.00108 ± 6.5e-05	0.00122 ± 7.3e-05	0.00138 ± 8.3e-05	0.00154 ± 9.3e-05	0.00173 ± 0.0001
x2 = 0.001799, x1 = 3.6e-07	0.00119 ± 7.1e-05	0.00135 ± 8.1e-05	0.00152 ± 9.1e-05	0.00169 ± 0.0001	0.00189 ± 0.00011
x2 = 0.001799, x1 = 7.3e-07	0.00132 ± 7.9e-05	0.00149 ± 9e-05	0.00168 ± 0.0001	0.00188 ± 0.00011	0.00209 ± 0.00013
x2 = 0.001799, x1 = 1.09e-06	0.00145 ± 8.7e-05	0.00164 ± 9.9e-05	0.00185 ± 0.00011	0.00206 ± 0.00012	0.0023 ± 0.00014
x2 = 0.001799, x1 = 1.27e-06	0.00157 ± 9.4e-05	0.00178 ± 0.00011	0.00199 ± 0.00012	0.00222 ± 0.00013	0.00248 ± 0.00015
x2 = 0.001799, x1 = 1.46e-06	0.00171 ± 0.0001	0.00193 ± 0.00012	0.00216 ± 0.00013	0.00242 ± 0.00015	0.00269 ± 0.00016
x2 = 0.001799, x1 = 1.64e-06	0.00177 ± 0.00011	0.002 ± 0.00012	0.00225 ± 0.00014	0.00252 ± 0.00015	0.0028 ± 0.00017
x2 = 0.001799, x1 = 1.82e-06	0.00183 ± 0.00011	0.00207 ± 0.00012	0.00233 ± 0.00014	0.0026 ± 0.00016	0.0029 ± 0.00017
x2 = 0.001799, x1 = 2e-06	0.00188 ± 0.00011	0.00213 ± 0.00013	0.0024 ± 0.00014	0.00268 ± 0.00016	0.00299 ± 0.00018
x2 = 0.001799, x1 = 2.18e-06	0.00196 ± 0.00012	0.00224 ± 0.00013	0.00252 ± 0.00015	0.00282 ± 0.00017	0.00314 ± 0.00019
x2 = 0.001799, x1 = 2.37e-06	–	0.00234 ± 0.00014	0.00267 ± 0.00016	0.00298 ± 0.00018	0.00332 ± 0.0002
x2 = 0.001799, x1 = 2.55e-06	0.00205 ± 0.00012	–	–	–	–
x2 = 0.001799, x1 = 2.73e-06	0.00216 ± 0.00013	0.00248 ± 0.00015	–	0.00317 ± 0.00019	0.00355 ± 0.00021
x2 = 0.001799, x1 = 3.09e-06	0.00226 ± 0.00014	0.00258 ± 0.00015	0.00292 ± 0.00018	0.0033 ± 0.0002	0.0037 ± 0.00022
x2 = 0.001799, x1 = 3.46e-06	0.00234 ± 0.00014	0.00268 ± 0.00016	0.00304 ± 0.00018	0.00342 ± 0.00021	0.00384 ± 0.00023

CCCCCCCCn1cc[n+](C)c1.[Br-] + O + CCCCCCCCn1cc[n+](C)c1.F[B-](F)(F)F
298.15 K, 101 kPa
Conditions	electrical conductivity [S/m]
x1 = 0.0002342, x3 = 5.406e-05	0.15 ± 0.01
x1 = 0.001691, x3 = 0.0003242	0.8 ± 0.02
x1 = 0.002265, x3 = 0.0004503	0.99 ± 0.02
x1 = 0.002803, x3 = 0.0005403	1.11 ± 0.02
x1 = 0.00343, x3 = 0.0006663	1.24 ± 0.03
x1 = 0.004413, x3 = 0.0008642	1.37 ± 0.03
x1 = 0.004913, x3 = 0.0009541	1.45 ± 0.03

CCCC[n+]1ccn(C)c1.COP(=O)([O-])OC + CCCC(=O)[O-].CC[NH+](CC)CCO
101 kPa
Conditions	viscosity [mPa·s]
298.15 K	609 ± 21
318.15 K	168.9 ± 3.3
328.15 K	100.9 ± 1.5
348.15 K	43.18 ± 0.55
373.15 K	19.25 ± 0.24

CC[N+](C)(CC)CCOC.O=S(=O)([N-]S(=O)(=O)C(F)(F)F)C(F)(F)F + CC[N+](C)(CC)CCOC.F[B-](F)(F)F
Conditions	electrical conductivity [S/m]
298.15 K, 100 kPa, x1 = 1	0.311 ± 0.019

CCCCO + CC[n+]1ccn(CCOC)c1.N#C[S-]
100 kPa
Conditions	viscosity [mPa·s]
288.15 K	3.36 ± 0.18
293.15 K	2.94 ± 0.16
298.15 K	2.58 ± 0.14
303.15 K	2.27 ± 0.12
308.15 K	2.01 ± 0.11
313.15 K	1.78 ± 0.097
318.15 K	1.585 ± 0.087

Reference: the CheMixHub ionic liquid set
